Experimental data taken from patent US20230303569A1, “HETEROCYCLIC COMPOUNDS AS THERAPEUTIC AGENTS” (Arisan Therapeutics Inc., priority 2021, published 2023).
Read-outs that look alike come from different tables or passages of the source.

Legend:
Type in all cases: cell-based
human Nav1.1 = molecular target: T1, human Nav1.1 (Homo sapiens, UniProt P35498); test: Two pulse assay protocol, Nav1.1; details: peak current
T1 construct: host or cells: HEK293
Procedure: (§1) In vitro Na+ Current Inhibition Assays were performed by Eurofins Discovery (St Charles, MO). All compound functional activity determinations were determined through electrophysiological analyses of Na+ currents in HEK293 cells expressing a stably transfected Na+ channel (human Nav1.1, 1.2, 1.3, 1.5, 1.6, 1.7, or 1.8). After harvesting with Accutase cells are maintained in serum free medium at room temperature prior to electrophysiological recording utilizing the QPatch HT automated whole-cell patch-clamp platform (Sophion Bioscience, Woburn MA). […]
(§2) Two pulse assay protocol for human Nav1.1, 1.2, 1.3, 1.5, 1.6, 1.7, and 1.8 channels. […] Onset and steady state block of the sodium channel was measured using a pulse pattern, repeated every 20 seconds (s) from a holding potential of −120 mV for 100 ms, and then pulsed to 0 mV for 500 ms to inactivate the Na channels and facilitate inactivated state-dependent binding of the test compounds. […] Peak current was measured during the step to 0 mV at pulse 1 and 2 to measure tonic and state-dependent inhibition. Compound activities were assessed by dividing post current amplitude (at the end of each five (5) minute compound application) by the vehicle control amplitude and the mean calculated for each compound concentration. […] Current amplitudes in excess of 200 pA at the control stage were analyzed. […]

human Nav1.7 = molecular target: T2, human Nav1.7 (Homo sapiens, UniProt Q15858); test: Two pulse assay protocol, Nav1.7; details: peak current
T2 construct: host or cells: HEK293
Procedure: (§3) In vitro Na+ Current Inhibition Assays were performed by Eurofins Discovery (St Charles, MO). All compound functional activity determinations were determined through electrophysiological analyses of Na+ currents in HEK293 cells expressing a stably transfected Na+ channel (human Nav1.1, 1.2, 1.3, 1.5, 1.6, 1.7, or 1.8). After harvesting with Accutase cells are maintained in serum free medium at room temperature prior to electrophysiological recording utilizing the QPatch HT automated whole-cell patch-clamp platform (Sophion Bioscience, Woburn MA). Stock solution aliquots of the test compound are prepared in DMSO at 300× the final assay concentrations, and stored at −20° C. until the day of assay. On the day of the assay, an aliquot of the stock solution is thawed and diluted into external solution (137 mM NaCl, 4 mM KCl, 1 mM MgCl2, 1.8 mM CaCl2, 10 mM HEPES, 10 mM Glucose (pH 7.3, titrated with 10M NaOH) to make final test concentrations. A final concentration of 0.33% DMSO is maintained for each concentration of the assay compounds. Internal solution for recordings of Na+ consist consists of 100 mM CsF, 45 mM CsCl, 5 mM NaCl, 10 mM HEPES, 5 mM EGTA (pH 7.3, titrated with 1M CsOH).
(§4) Two pulse assay protocol for human Nav1.1, 1.2, 1.3, 1.5, 1.6, 1.7, and 1.8 channels. Mammalian cultured cells expressing the indicated human Nav1.1, 1.2, 1.3, 1.5, 1.6, 1.7 or 1.8 channels were assayed using the The QPatch HT (Sophion Bioscience, Woburn MA) automated system with an intracellular solution (mM) of 100 CsF, 45 CsCl, 5 NaCl, 10 HEPES, 5 EGTA (pH 7.3, titrated with 1M CsOH) and extracellular solution (mM) of 137 NaCl, 4 KCl, 1 MgCl2, 1.8 CaCl2, 10 HEPES, 10 Glucose (pH 7.3, titrated with 10M NaOH). Onset and steady state block of the sodium channel was measured using a pulse pattern, repeated every 20 seconds (s) from a holding potential of −120 mV for 100 ms, and then pulsed to 0 mV for 500 ms to inactivate the Na channels and facilitate inactivated state-dependent binding of the test compounds. The cell membranes were then stepped back to −120 mV for 10 ms to recover from inactivation into resting or closed state (channels with test compound bound to them will not recover from inactivation and will not open) before stepping to 0 mV for 50 ms (pulse 2) to measure Na channels that are available to open. Peak current was measured during the step to 0 mV at pulse 1 and 2 to measure tonic and state-dependent inhibition. Compound activities were assessed by dividing post current amplitude (at the end of each five (5) minute compound application) by the vehicle control amplitude and the mean calculated for each compound concentration. Tetracaine was used as a positive control and was tested concurrently with the test compounds. Current amplitudes in excess of 200 pA at the control stage were analyzed. The amplitude of the current was calculated by measuring the difference between the peak inward current on stepping to 0 mV (i.e. peak of the current) and remaining current at the end of the step. The current was assessed in vehicle control conditions and then at the end of each five (5) minute compound application.

human Nav1.2 = molecular target: T3, human Nav1.2 (Homo sapiens, UniProt Q99250); test: Two pulse assay protocol, Nav1.2; details: peak current
T3 construct: host or cells: HEK293
Procedure: as §3, §4

[1] = molecular target: T4, human Nav1.5 (late current) (Homo sapiens, UniProt Q14524); test: Nav1.5 Late Current Assay (QPatch HT whole-cell patch clamp, 30 nM ATX-II); details: HEK293 cells stably expressing human Nav1.5, pH 7.3, late current with 30 nM ATX-II, read-out: percent inhibition hNav1.5 Late (5 uM)
T4 construct: host or cells: HEK293
T4 sequence (Q14524 whole entry): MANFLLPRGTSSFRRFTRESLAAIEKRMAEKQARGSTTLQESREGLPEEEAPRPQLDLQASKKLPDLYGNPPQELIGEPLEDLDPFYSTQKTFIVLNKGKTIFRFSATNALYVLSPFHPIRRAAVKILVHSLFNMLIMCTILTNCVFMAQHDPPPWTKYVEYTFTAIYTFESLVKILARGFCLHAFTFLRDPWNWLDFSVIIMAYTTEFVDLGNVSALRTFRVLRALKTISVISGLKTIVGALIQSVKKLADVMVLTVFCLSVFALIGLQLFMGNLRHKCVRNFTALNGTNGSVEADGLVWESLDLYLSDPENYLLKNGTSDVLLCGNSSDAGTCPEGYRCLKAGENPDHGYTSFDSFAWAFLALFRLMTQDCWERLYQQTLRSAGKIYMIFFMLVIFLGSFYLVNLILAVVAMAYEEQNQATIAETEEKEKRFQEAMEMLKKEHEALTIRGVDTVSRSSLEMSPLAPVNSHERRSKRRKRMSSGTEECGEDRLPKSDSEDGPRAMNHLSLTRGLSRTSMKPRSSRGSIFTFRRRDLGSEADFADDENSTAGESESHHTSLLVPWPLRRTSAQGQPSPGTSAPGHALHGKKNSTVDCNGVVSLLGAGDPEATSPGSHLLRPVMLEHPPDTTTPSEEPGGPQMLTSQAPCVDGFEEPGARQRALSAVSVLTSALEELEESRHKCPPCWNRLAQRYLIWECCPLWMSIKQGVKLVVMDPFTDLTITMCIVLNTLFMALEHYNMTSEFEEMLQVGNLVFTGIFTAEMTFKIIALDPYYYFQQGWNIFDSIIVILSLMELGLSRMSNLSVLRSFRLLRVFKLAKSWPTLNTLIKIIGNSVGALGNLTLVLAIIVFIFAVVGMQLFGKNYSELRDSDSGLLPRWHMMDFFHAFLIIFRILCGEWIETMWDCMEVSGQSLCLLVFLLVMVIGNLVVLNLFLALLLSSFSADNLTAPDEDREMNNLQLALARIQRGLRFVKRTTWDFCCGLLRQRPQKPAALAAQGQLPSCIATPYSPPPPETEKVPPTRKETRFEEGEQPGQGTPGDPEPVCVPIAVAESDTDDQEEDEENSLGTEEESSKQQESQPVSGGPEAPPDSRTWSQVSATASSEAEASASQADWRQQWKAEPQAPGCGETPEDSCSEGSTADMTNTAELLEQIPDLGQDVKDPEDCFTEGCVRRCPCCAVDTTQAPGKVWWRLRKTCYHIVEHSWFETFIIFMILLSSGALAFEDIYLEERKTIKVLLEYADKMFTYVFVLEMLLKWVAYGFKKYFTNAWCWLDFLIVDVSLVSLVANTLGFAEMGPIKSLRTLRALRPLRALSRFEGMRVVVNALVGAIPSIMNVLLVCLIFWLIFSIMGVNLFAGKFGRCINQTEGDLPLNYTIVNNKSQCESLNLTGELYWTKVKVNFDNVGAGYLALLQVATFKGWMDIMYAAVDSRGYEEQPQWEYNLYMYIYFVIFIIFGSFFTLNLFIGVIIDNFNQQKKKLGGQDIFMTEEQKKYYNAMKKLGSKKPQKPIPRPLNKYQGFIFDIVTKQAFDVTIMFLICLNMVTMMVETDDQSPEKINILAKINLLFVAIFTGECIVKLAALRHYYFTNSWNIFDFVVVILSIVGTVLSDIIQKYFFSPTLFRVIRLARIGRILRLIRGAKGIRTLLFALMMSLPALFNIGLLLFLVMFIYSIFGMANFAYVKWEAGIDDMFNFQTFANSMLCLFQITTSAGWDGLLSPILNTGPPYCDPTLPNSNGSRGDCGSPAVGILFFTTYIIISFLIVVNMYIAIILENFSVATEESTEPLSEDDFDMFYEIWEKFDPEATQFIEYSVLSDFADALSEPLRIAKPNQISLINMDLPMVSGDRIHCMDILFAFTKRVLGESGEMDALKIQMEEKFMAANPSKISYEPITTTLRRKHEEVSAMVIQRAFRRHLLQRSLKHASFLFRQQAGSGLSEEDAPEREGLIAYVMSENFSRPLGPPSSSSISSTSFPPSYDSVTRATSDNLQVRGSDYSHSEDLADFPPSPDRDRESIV
Procedure: as §3
Onset and steady state induction of late Nav1.5 current was measured using a pulse pattern, repeated every 5 sec, consisting of a hyperpolarizing pulse to −120 mV for a 200 ms duration, depolarization to −15 mV amplitude for a 40 ms duration, followed by step to 40 mV for 200 ms and finally a 100 ms ramp (1.2 V/s) to a holding potential of −80 mV. Each concentration of compound was applied for 5 minutes. The assay was performed at room temperature. After establishing vehicle control condition, all further addition of external solutions contain 30 nM ATX-II to activate late currents. Each concentration of compound was also co-applied with 30 nM ATXII to estimate the Nav1.5 late current inhibition. […]. ATXII was used as the agonist positive control and was tested concurrently with the test compound. Ranolazine was used as the positive control and was tested concurrently with the test compound.
Nav1.5 late current was measured as the total charge flowing through the Nav1.5 channels (area under the curve) 5 ms after the Nav1.5 peak current till the end of the test pulse and as charge at their maxima during the ramp. Individual cell results were normalized to their respective vehicle control and the results were averaged. The sodium current was assessed in 30 nM ATXII as vehicle control conditions and then at the end of each five (5) minute compound application in the presence of 30 nM ATXII. Individual cell result was normalized to 30 nM ATXII vehicle control amplitude and the mean±SEM calculated for each compound concentration.

[2] = molecular target: T5, human Nav1.5 (peak current) (Homo sapiens, UniProt Q14524); test: Nav1.5 Peak Current Assay (QPatch HT whole-cell patch clamp); details: HEK293 cells stably expressing human Nav1.5, pH 7.3, peak current at step to -15 mV, read-out: percent inhibition hNav1.5 Peak (5 uM)
T5 construct: host or cells: HEK293
Procedure: as §3
Onset and steady state block of peak Nav1.5 current was measured using a pulse pattern, repeated every 5 sec, consisting of a hyperpolarizing pulse to −120 mV for a 200 ms duration, depolarization to -15 mV amplitude for a 40 ms duration, followed by step to 40 mV for 200 ms and finally a 100 ms ramp (1.2 V/s) to a holding potential of −80 mV. Peak current was measured during the step to −15 mV.
Each concentration of compound was applied for 5 minutes. The assay was performed at room temperature and Tetracaine was used concurrently as a positive control. Only current amplitudes in excess of 200 pA at the control stage were analyzed. The amplitude of the sodium current was calculated by measuring the difference between the peak inward current on stepping to −15 mV (i.e. peak of the current) and the leak current. The sodium current was assessed in vehicle control conditions and then at the end of each five (5) minute compound application. Individual cell result was normalized to the vehicle control amplitude and the mean±SEM calculated for each compound concentration.

human Nav1.3 = molecular target: T6, human Nav1.3 (Homo sapiens, UniProt Q9NY46); test: Two pulse assay protocol, Nav1.3; details: peak current
T6 construct: host or cells: HEK293
Procedure: as §1, §2

human Nav1.6 = molecular target: T7, human Nav1.6 (Homo sapiens, UniProt Q9UQD0); test: Two pulse assay protocol, Nav1.6; details: 5 uM, peak current
T7 construct: host or cells: HEK293
Procedure: as §3, §4

human Nav1.8 = molecular target: T8, human Nav1.8 (Homo sapiens, UniProt Q9Y5Y9); test: Two pulse assay protocol, Nav1.8; details: peak current
T8 construct: host or cells: HEK293
T8 sequence (Q9Y5Y9 whole entry): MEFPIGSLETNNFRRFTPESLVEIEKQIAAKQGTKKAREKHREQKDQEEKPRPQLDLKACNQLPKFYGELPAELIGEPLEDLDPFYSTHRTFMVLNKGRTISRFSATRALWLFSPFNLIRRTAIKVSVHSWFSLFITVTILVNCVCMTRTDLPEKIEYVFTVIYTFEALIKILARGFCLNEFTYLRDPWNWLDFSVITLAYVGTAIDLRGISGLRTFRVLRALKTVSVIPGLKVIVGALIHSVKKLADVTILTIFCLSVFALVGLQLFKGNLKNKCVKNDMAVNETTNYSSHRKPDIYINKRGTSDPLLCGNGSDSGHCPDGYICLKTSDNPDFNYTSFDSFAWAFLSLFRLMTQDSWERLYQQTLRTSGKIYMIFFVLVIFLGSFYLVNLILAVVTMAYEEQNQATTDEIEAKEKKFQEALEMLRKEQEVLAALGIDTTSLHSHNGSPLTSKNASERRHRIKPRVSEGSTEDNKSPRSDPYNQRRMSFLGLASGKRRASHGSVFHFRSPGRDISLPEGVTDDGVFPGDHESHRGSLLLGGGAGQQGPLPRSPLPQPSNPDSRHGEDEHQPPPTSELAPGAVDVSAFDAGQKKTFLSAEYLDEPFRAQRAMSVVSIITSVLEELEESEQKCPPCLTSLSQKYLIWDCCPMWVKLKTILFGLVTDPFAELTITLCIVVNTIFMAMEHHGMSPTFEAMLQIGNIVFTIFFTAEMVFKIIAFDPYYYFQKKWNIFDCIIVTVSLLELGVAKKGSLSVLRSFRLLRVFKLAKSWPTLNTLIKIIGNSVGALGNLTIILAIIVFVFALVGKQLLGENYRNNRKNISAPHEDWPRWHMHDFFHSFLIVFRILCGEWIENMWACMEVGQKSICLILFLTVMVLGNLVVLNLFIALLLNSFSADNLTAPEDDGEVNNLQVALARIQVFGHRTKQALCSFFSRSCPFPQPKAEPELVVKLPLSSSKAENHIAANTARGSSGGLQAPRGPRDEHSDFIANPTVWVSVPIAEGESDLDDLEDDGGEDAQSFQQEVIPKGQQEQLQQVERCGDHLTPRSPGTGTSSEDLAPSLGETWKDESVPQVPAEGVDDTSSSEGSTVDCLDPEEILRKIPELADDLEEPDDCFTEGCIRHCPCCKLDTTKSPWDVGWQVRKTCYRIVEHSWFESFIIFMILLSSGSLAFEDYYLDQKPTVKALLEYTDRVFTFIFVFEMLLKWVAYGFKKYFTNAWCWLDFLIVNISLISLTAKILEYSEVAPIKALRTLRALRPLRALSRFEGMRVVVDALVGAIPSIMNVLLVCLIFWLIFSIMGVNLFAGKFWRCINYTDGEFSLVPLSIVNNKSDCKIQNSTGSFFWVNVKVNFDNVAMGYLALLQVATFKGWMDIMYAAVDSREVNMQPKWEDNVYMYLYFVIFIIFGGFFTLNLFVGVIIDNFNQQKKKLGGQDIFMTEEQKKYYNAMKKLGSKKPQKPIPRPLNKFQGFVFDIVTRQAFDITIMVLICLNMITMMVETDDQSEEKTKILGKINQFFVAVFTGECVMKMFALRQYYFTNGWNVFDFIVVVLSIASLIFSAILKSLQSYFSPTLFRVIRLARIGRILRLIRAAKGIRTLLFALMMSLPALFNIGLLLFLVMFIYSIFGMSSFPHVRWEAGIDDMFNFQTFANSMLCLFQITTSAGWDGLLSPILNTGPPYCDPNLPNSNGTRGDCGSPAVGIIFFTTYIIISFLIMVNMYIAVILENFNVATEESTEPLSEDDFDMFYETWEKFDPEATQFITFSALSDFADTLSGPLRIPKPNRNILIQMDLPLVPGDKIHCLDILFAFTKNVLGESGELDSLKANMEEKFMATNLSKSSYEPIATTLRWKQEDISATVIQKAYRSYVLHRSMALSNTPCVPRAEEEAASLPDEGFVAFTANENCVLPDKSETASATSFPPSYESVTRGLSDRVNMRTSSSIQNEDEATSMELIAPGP
Procedure: as §3, §4

[3] = pulse 1 (tonic), read-out: percent inhibition hNav1.7, Pulse 1 (5 uM)
[4] = pulse 2 (state-dependent), read-out: percent inhibition hNav1.7, Pulse 2 (5 uM)
[5] = pulse 1 (tonic), read-out: percent inhibition hNav1.6, Pulse 1 (5 uM)
[6] = pulse 2 (state-dependent), read-out: percent inhibition hNav1.6, Pulse 2 (5 uM)
[7] = pulse 1 (tonic), read-out: percent inhibition hNav1.8, Pulse 1 (5 uM)
[8] = pulse 2 (state-dependent), read-out: percent inhibition hNav1.8, Pulse 2 (5 uM)

inhibition at 5 µM (human Nav1.1; pulse 1 (tonic), read-out: percent inhibition hNav1.1, Pulse 1 (5 uM))	inhibition at 5 µM (human Nav1.1; pulse 2 (state-dependent), read-out: percent inhibition hNav1.1, Pulse 2 (5 uM))	inhibition at 5 µM (human Nav1.7; [3])	inhibition at 5 µM (human Nav1.7; [4])	inhibition at 5 µM (human Nav1.2; pulse 1 (tonic), read-out: percent inhibition hNav1.2, Pulse 1 (5 uM))	inhibition at 5 µM (human Nav1.2; pulse 2 (state-dependent), read-out: percent inhibition hNav1.2, Pulse 2 (5 uM))	inhibition at 5 µM (human Nav1.3; pulse 1 (tonic), read-out: percent inhibition hNav1.3, Pulse 1 (5 uM))	inhibition at 5 µM (human Nav1.3; pulse 2 (state-dependent), read-out: percent inhibition hNav1.3, Pulse 2 (5 uM))	Compound	inhibition at 5 min, 5 uM [1]	inhibition at 5 min, 5 µM [2]	inhibition at 5 µM (human Nav1.6; [5])	inhibition at 5 µM (human Nav1.6; [6])	inhibition at 5 µM (human Nav1.8; [7])	inhibition at 5 µM (human Nav1.8; [8])
< 50%	> 90%	< 50%	> 90%	< 50%	> 90%	< 50%	> 90%	CC(C)Oc1ccc(-c2cnc3ccc(-c4ccc(OC(C)C)nc4)cn23)cc1 [Example C12, 2-(propan-2-yloxy)-5-{3-[4-(propan-2-yloxy)phenyl]imidazo[1,2-a]pyridin-6-yl}pyridine]	> 90%	50 to 90%	< 50%	> 90%	–	–
–	–	–	–	–	–	–	–	CC(C)Oc1ccc(-c2ccc3ncc(-c4ccc(OC(C)(C)C)cc4)n3c2)cc1 [Example C32, 3-[4-(tert-butoxy)phenyl]-6-[4-(propan-2-yloxy)phenyl]imidazo[1,2-a]pyridine]	> 90%	50 to 90%	< 50%	> 90%	–	–
–	–	< 50%	> 90%	–	–	–	–	CC(C)Oc1ccc(-c2ccc3ncc(-c4ccc(OC(C)C)nc4)n3c2)cc1 [Example C37, 2-(propan-2-yloxy)-5-{6-[4-(propan-2-yloxy)phenyl]imidazo[1,2-a]pyridin-3-yl}pyridine]	> 90%	< 50%	< 50%	> 90%	< 50%	50 to 90%

Compound	inhibition at 5 µM (human Nav1.1; pulse 1 (tonic), read-out: percent inhibition hNav1.1, Pulse 1 (5 uM))	inhibition at 5 µM (human Nav1.1; pulse 2 (state-dependent), read-out: percent inhibition hNav1.1, Pulse 2 (5 uM))	inhibition at 5 µM (human Nav1.7; [3])	inhibition at 5 µM (human Nav1.7; [4])	inhibition at 5 µM (human Nav1.2; pulse 1 (tonic), read-out: percent inhibition hNav1.2, Pulse 1 (5 uM))	inhibition at 5 µM (human Nav1.2; pulse 2 (state-dependent), read-out: percent inhibition hNav1.2, Pulse 2 (5 uM))	inhibition at 5 µM (human Nav1.3; pulse 1 (tonic), read-out: percent inhibition hNav1.3, Pulse 1 (5 uM))	inhibition at 5 µM (human Nav1.3; pulse 2 (state-dependent), read-out: percent inhibition hNav1.3, Pulse 2 (5 uM))	inhibition at 5 min, 5 uM [1]	inhibition at 5 min, 5 µM [2]	inhibition at 5 µM (human Nav1.6; [5])	inhibition at 5 µM (human Nav1.6; [6])	inhibition at 5 µM (human Nav1.8; [7])	inhibition at 5 µM (human Nav1.8; [8])
Cc1cc2ncc(-c3ccc(OC(C)(C)C)cc3)n2cc1-c1ccc(OC(C)C)cc1 [Example C55, 3-(4-(tert-butoxy)phenyl)-6-(4-isopropoxyphenyl)-7-methylimidazo[1,2-a]pyridine]	–	–	< 50%	50 to 90%	–	–	–	–	50 to 90%	< 50%	< 50%	> 90%	< 50%	< 50%
